From patent US20140206735A1, “HIGH DOSAGE TOPICAL METRONIDAZOLE AQUEOUS-BASED GEL FORMULATIONS AND THEIR USE TO TREAT ROSACEA” (Medicis Pharmaceutical Corporation, priority 2012, published 2014)

Test: Saturated MTZ solubility at 25° C. in solvents and solvent mixtures
Type: physicochemical
[1] = MTZ in Phosphate buffer, 50 mM, pH 4
[2] = MTZ in Phosphate buffer, 50 mM, pH 6

With Cc1ncc([N+](=O)[O-])n1CCO [MTZ, 2-(2-methyl-5-nitro-1H-imidazol-1-yl)ethanol] as the compound, how does the “Solubility at 25° C. (n = 3, mean ± SEM)” value (MTZ in 1 wt % aq. polysorbate 60) read?
The value was 9.72 ± 0.08 mg/g.

What about the “Solubility at 25° C. (n = 3, mean ± SEM)” value (MTZ in 2 wt % aq. Benzyl alcohol) of the same compound?
Its value is 10.81 ± 0.040 mg/g.

And the “Solubility at 25° C. (n = 3, mean ± SEM)” value (MTZ in 10 wt % aq. Lutrol F127)?
Its value is 9.15 ± 0.09 mg/g.

What about the “Solubility at 25° C. (n = 3, mean ± SEM)” value (MTZ in 50 wt % aq. glycerol) of the same compound?
Its value is 7.62 ± 0.19 mg/g.

And the “Solubility at 25° C. (n = 3, mean ± SEM)” value (MTZ in Deionized water)?
Its value is 8.70 ± 0.09 mg/g.

And the “Solubility at 25° C. (n = 1)” value (MTZ in Ethanol)?
The value was 19.96 mg/g.

And the “Solubility at 25° C. (n = 3, mean ± SEM)” value (MTZ in Ethanol)?
The value was 16.36 ± 0.12 mg/g.

And the “Solubility at 25° C. (n = 1)” value (MTZ in Ethylene glycol)?
The value was 21.34 mg/g.

And the “Solubility at 25° C. (n = 1)” value (MTZ in Glycerol)?
The value was 8.35 mg/g.

What about the “Solubility at 25° C. (n = 1)” value (MTZ in PEG 400) of the same compound?
Its value is 24.78 mg/g.

And the “Solubility at 25° C. (n = 3, mean ± SEM)” value (MTZ in PEG 400)?
The value was 18.79 ± 1.23 mg/g.

And the “Solubility at 25° C. (n = 1)” value [1]?
Its value is 9.09 mg/g.

What about the “Solubility at 25° C. (n = 3, mean ± SEM)” value [1] of the same compound?
Its value is 8.26 ± 0.45 mg/g.

And the “Solubility at 25° C. (n = 1)” value (MTZ in Phosphate buffer, 50 mM, pH 5)?
Its value is 9.13 mg/g.

What about the “Solubility at 25° C. (n = 1)” value [2] of the same compound?
The value was 9.10 mg/g.

And the “Solubility at 25° C. (n = 3, mean ± SEM)” value [2]?
The value was 8.57 ± 0.05 mg/g.

And the “Solubility at 25° C. (n = 1)” value (MTZ in Phosphate buffer, 50 mM, pH 7)?
Its value is 9.07 mg/g.

And the “Solubility at 25° C. (n = 1)” value (MTZ in Propylene glycol)?
Its value is 20.74 mg/g.

And the “Solubility at 25° C. (n = 3, mean ± SEM)” value (MTZ in Propylene glycol)?
The value was 18.62 ± 0.25 mg/g.

What about the “Solubility at 25° C. (n = 1)” value (MTZ in tetraglycol) of the same compound?
Its value is 29.65 mg/g.

What about the “saturated MTZ solubility at 25° C.” value (in certain alcohols (ethanol, benzyl alcohol), diols (ethylene glycol, propylene glycol), polyethers (PEG 400)) of the same compound?
The value was “at least 20 mg/g”.
